Consider twelve compounds from PubChem BioAssay (NCI).

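Dose response: 5 concentrations. Exposure: 48 h. Format: 96-well plates. Endpoint: linear interpolation; highest concentration if not reached. Definition used: TGI = concentration required for complete inhibition of growth.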 Where a SMILES comes first, the peptide text is derived from it. [ ]: non-standard residue; d: D form. The star is where a group is joined. ξ: configuration not given here. ξNMeF = CNC(Cc1ccccc1)C(=O)O; NMeV = CN[C@H](C(=O)O)C(C)C; Boc = CC(C)(C)OC(=O)*; OBn = c1ccc(CO*)cc1

Common to all, as to assay: NCI tumour cell line growth inhibition, 48 h
Assay [1] deals with XF 498 CNS.
Assay [2] relates to DLD-1 colon.
Assay [3] concerns DMS 114 small cell lung.
Assay [4] deals with SK-MEL-2 melanoma.
Assay [5] deals with HOP-18 NSCLC.
Assay [6] concerns DMS 273 small cell lung.
In assay [7] the test system is P388 leukemia.
The subject of assay [8] is KM20L2 colon.
Assay [9] relates to SNB-78 CNS.
In assay [10] the test system is KM12 colon.
The subject of assay [11] is SN12K1 renal.
Assay [12] concerns M19-MEL melanoma.
Assay [13] deals with P388/ADR leukemia.
Assay [14] deals with LXFL 529 NSCLC.
Assay [15] relates to RXF-631 renal.

In the case of `C=C1CC(OC)(C(OC)C(=O)N[C@H]2OCO[C@H]3C2O[C@H](C[C@@H](COC)OC)C(C)(C)C3OC)O[C@H](C)[C@@H]1C` (some centres not stated), the TGI in assay [1] is 2.54 µM; in assay [2], 9.33 µM; in assay [3] it was 13.9 µM; in assay [4], 14.9 µM; in [5] it was 23.9 µM; in [6], 3.79 µM. Further, the TGI in assay [7] was 0.691 µM; in assay [8] it was more than 47 µM; in assay [9] it was 4.81 µM; in [10] it was more than 47 µM; in [11] it was 15.2 µM; in assay [12] it was 5.93 µM. This compound had a TGI in [13] of 1.4 µM.
In the case of `Cc1cc(O)c2c(c1)C(=O)c1c(c(O)cc(O)c1-c1c(O)cc(O)c3c1C(=O)c1cc(C)cc(O)c1C3=O)C2=O`, the TGI in assay [1] came to 53.4 µM; in [2], 59.5 µM; in assay [3] it was 63 µM; in assay [4] it was 40.7 µM; in [5] it was 39.9 µM; in assay [6], 30.3 µM. Moreover, the TGI turned out to be 63 µM in assay [7]; 52.2 µM in assay [8]; 105 µM in assay [9]; 64.2 µM in assay [10]; 39.9 µM in assay [11]; 59.4 µM in assay [12]. In assay [13], this compound gave a TGI of 99.8 µM.
Consider `COc1ccc2c(c1)CCc1c-2[nH]c2cc3c(cc2c1=O)OCO3`, for which the TGI in assay [1], in assay [2], in assay [4], in assay [5], in [14] and in [6] was more than 100 µM each time. In addition, the TGI in assay [9], in [10] and in [12] was more than 100 µM in each case.
Take `CCN(CC)CCNc1ccc2ncn3c4ccc(OC)cc4c(=O)c1c23`: the TGI is 25.1 µM in assay [1]; 20 µM in [2]; 25.2 µM in [3]; 25.4 µM in assay [4]; 62 µM in assay [5]; 20 µM in [14]. Besides, the TGI in [6] was 14.9 µM; in assay [8], 8.76 µM; in [9] it was 30.9 µM; in assay [10], 7.68 µM; in assay [15], 15.8 µM; in assay [12] it was 20.4 µM.
For `Cc1ccc(Nc2cccc3c2C(=O)c2cccc(Nc4ccc(C)cc4S(=O)(=O)O)c2C3=O)c(S(=O)(=O)O)c1`, the TGI in assay [2], in assay [3], in assay [4], in [5], in assay [14] and in assay [6] was more than 100 µM in each case. For the same compound, the TGI in [8], in assay [9], in [10], in assay [15] and in [12] was more than 100 µM in each case.
As to `CCN(CC)C(=O)CCn1cc(F)c(=O)[nH]c1=O`, the TGI in [1], in assay [3], in assay [4], in [14], in assay [6] and in [8] was more than 100 µM each time. Moreover, the TGI in assay [9], in [10] and in [12] was more than 100 µM in each case.
As to `O=C(O)CCC(NC(=O)c1ccc(Nc2cnc3cc(C(F)(F)F)ccc3n2)cc1)C(=O)O` (configuration not stated), the TGI in assay [1], in assay [2], in [3], in assay [4], in assay [5] and in assay [6] was more than 100 µM each time. For the same compound, the TGI in assay [7], in assay [8], in assay [9], in [10], in assay [11] and in assay [13] was more than 100 µM throughout.
With `C=CCCCCCCCCCP(=O)(c1ccccc1)c1ccc2c(c1)OCCOCCOCCOCCO2` (configuration not stated), the TGI is 32.7 µM in [1]; 27.3 µM in [2]; 31.9 µM in assay [4]; 31.8 µM in assay [5]; 29.1 µM in [6]; 27.1 µM in [8]. Further, the TGI turned out to be 34.5 µM in assay [9], 25.4 µM in assay [10] and 33 µM in assay [12].
Consider `CC(C)[C@@H](C(=O)N(C)[C@H](C(=O)N1CCC[C@H]1C(=O)OCc1ccccc1)C(C)C)N(C)C(=O)C(Cc1ccccc1)N(C)C(=O)[C@H](NC(=O)OC(C)(C)C)C(C)C` (some centres not stated) (Boc-[dV][ξNMeF][NMeV][NMeV]P-OBn), for which the TGI in assay [1] is 27.9 µM; in assay [2] it was more than 31.6 µM; in assay [3], more than 31.6 µM; in [4], more than 31.6 µM; in assay [5] it was more than 100 µM; in [14], more than 100 µM. Besides, the TGI in [6], in assay [8], in assay [9] and in assay [12] was more than 31.6 µM in each case.
In the case of `O=C1c2ccccc2C(=O)N1CCCOCc1c[nH]c(=O)[nH]c1=O`, the TGI in assay [1], in assay [2], in [3], in assay [4], in [5] and in assay [14] was more than 100 µM in each case. For the same compound, the TGI in [6], in [8], in assay [10], in assay [15] and in assay [12] was more than 100 µM each time.
Consider `CN(c1ccccc1)c1cc2ccccc2nn1`, for which the TGI in assay [1], in assay [2], in assay [3], in [4], in assay [5] and in [14] was more than 100 µM throughout. Moreover, the TGI in [6], in [8], in assay [9], in [10], in assay [15] and in assay [12] was more than 100 µM throughout.
Turning to `ICC1CCCO1` (configuration not stated), the TGI in [1], in [2], in [3], in assay [4], in [5] and in [14] was more than 100 µM throughout. The TGI in assay [6], in assay [8], in [9], in assay [10] and in assay [15] was more than 100 µM each time.
